Measurements: publication PMC5750657, “In Vitro Phase I Metabolism of CRV431, a Novel Oral Drug Candidate for Chronic Hepatitis B” (Pharmaceutics, 2017)

Assays:
Type in all cases: in vitro ADME
[1] = Metabolic stability of CRV431 in human liver microsomes
Procedure: Incubations of CRV431 (1 and 10 μM) with pooled human liver microsomes (1 mg protein/mL) were conducted for 30 min. […] CRV431 was added to incubations in DMSO (0.1% v/v). Additional incubations of CRV431 (1 and 10 μM) with human liver microsomes (1 mg protein/mL) were carried out at 0, 15, 30, 60, and 120 min. Reactions were initiated by the addition of the NADPH-generating system, and were stopped by the addition of 175 μL of acetonitrile. The samples were centrifuged (920× g for 10 min at 10 °C), and the supernatant fractions were analyzed by LC-MS/MS (Sciex, Redwood City, CA, USA) to quantify the amount of unchanged CRV431 based on a calibration curve (ranging from 0.01 to 15 μM). Zero-time, zero-cofactor (no NADPH), zero-substrate, and zero-protein served as blanks.
(§1) The electrospray voltage was set at 4500 volts.

recombinant human CYP1A2 = molecular target: T1, recombinant human CYP1A2 (Homo sapiens, UniProt P05177); assay: Metabolism by recombinant human CYP enzymes: CYP1A2; details: CRV431 1 μM; 50 pmol CYP/mL; 15 min
T1 construct: purchased Sekisui Xenotech, Kansas City, MO, USA
T1 sequence (P05177 1-516): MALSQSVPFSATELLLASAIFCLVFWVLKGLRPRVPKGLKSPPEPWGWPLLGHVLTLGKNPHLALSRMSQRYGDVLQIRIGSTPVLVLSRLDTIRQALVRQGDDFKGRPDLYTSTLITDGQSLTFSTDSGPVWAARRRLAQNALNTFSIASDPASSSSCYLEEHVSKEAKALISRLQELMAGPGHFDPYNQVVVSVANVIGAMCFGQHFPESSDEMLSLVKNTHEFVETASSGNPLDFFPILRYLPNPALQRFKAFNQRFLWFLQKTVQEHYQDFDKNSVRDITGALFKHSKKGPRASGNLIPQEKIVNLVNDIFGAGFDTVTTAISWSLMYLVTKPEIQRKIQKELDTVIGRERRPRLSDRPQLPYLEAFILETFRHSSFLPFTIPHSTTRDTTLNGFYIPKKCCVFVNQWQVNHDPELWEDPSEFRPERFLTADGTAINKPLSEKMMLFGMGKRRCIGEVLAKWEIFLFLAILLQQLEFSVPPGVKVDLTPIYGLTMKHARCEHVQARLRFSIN
Procedure: (§2) This experiment was carried out to determine the cytochrome P450 (CYP) enzymes capable of metabolizing CRV431. […] Reactions were initiated by the addition of cofactor, and were terminated at zero and 15 min by the addition of 175 μL ice-cold methanol.
as §1

[2] = molecular target: T2, recombinant human CYP2C19 (Homo sapiens, UniProt P33261); assay: Metabolism by recombinant human CYP enzymes: CYP2C19; details: CRV431 1 μM; 50 pmol CYP/mL; 15 min
T2 construct: purchased Sekisui Xenotech, Kansas City, MO, USA
Procedure: as §2, §1

recombinant human CYP2D6 = molecular target: T3, recombinant human CYP2D6 (Homo sapiens, UniProt P10635); assay: Metabolism by recombinant human CYP enzymes: CYP2D6; details: CRV431 1 μM; 50 pmol CYP/mL; 15 min
T3 construct: purchased Sekisui Xenotech, Kansas City, MO, USA
Procedure: as §2, §1

recombinant human CYP3A4 = molecular target: T4, recombinant human CYP3A4 (Homo sapiens, UniProt P08684); assay: Metabolism by recombinant human CYP enzymes: CYP3A4; details: 50 pmol CYP/mL, 15 min
T4 construct: purchased Sekisui Xenotech, Kansas City, MO, USA
Procedure: as §2, §1

[3] = Recombinant CYP panel: incubation with control bactosomes; details: CRV431 1 μM, 15 min
Procedure: as §2, §1

[4] = system: other recombinant human CYP enzymes; assay: Metabolism by the other recombinant human CYP enzymes evaluated; details: CRV431 1 and 10 μM; the CYP enzymes of the panel not given; 15 min
Procedure: as §2, §1

[5] = CRV431 metabolite profile in human liver microsomes (ESI-LCMS); details: pH 7.4; for Amount of CRV431 remaining: microsomes, 1 μg/mL
Procedure: (§3) Human and rat liver microsomes were obtained from Xenotech (Kansas City, MO, USA) and stored at −80 °C. Monkey liver microsomes were obtained from Thermo Fisher Scientific (Waltham, MA, USA) and stored at −80 °C. Preliminary microsomal biotransformation experiments were run with 0.1, 1, and 10 μg/mL CRV431. CRV431 biotransformation was minimal at 0.1 μg/mL, while both 1 and 10 μg/mL CRV431 gave sufficient metabolite quantity and identical metabolite profiles. Additionally, preliminary experiments were conducted with human liver microsome (HLM) levels ranging for 0.125 to 1 mg. Subsequent microsomal biotransformation experiments were conducted using 0.5 mg of microsome per assay.
(§4) Thawed microsome 20 mg/mL stocks were diluted 32× into cold buffer (Phosphate pH 7.4 + MgCl2 3 mM + EDTA 1 mM) to 0.625 mg/mL, and stored on ice. For experiments with CRV431, 2 μL of […] stocks were added to cold 1-mL microsomes (500× dilution) to generate the 1 μg/mL samples. […]. Samples were mixed by vortexing, and 160 μL was transferred into tubes containing 40 μL buffer on ice. Metabolic activity was stopped by the addition of ice-cold methanol (200 μL), followed by vortexing for an additional 10 s; these were zero-time samples. The extraction was completed by waiting 5 min, vortexing samples again for 5 s, then spinning the samples for 10 min at 3300 rpm at 4 °C in a pre-cooled microcentrifuge. The supernatant (325 μL) was transferred to new tubes and stored at −80 °C.
(§5) For time course experiments, metabolism was initiated by adding 40 μL of NADPH Regenerating System (5 mg/mL NADP, 6.5 mg/mL G6P and 5 units/mL of G6P dehydrogenase). The sample was vortexed for 2 s and placed in a 37 °C bath. For CRV431 experiments at time points 10 min, 20 min, 40 min, and 80 min, 200 μL of ice-cold methanol was added to the 200 μL microsome reactions, and extracted as described above. Samples were stored at −80 °C. For verapamil experiments at 15 min, 200 μL of ice-cold methanol was added to the 200 μL microsome reactions and extracted as described above. Samples were stored at −80 °C.
(§6) Microsome extracts were removed from the freezer (−80 °C) and left to thaw at room temperature. Aliquots (50 μL) were removed and placed in 2 mL plastic Eppendorf microcentrifuge tubes, to which 200 μL of a 0.2 M ZnSO4 solution (0.2 M ZnSO4 in water, plus HPLC grade methanol, 1:4, v/v) was added as protein precipitating reagent. The tubes were capped and vortexed for 10 s, and then left on the benchtop for 10 min. Samples were then centrifuged at 3300 rpm for 10 min. The clear supernatant (≈150 μL) was transferred to an appropriately labeled LC-MS autosampler vial and capped.
(§7) Samples were analyzed by electrospray ionization liquid chromatography mass spectrometry (ESI-LCMS) on an Agilent HP 1100 LC-MS. Samples were placed in an autosampler maintained at 5 °C. CRV431 microsomal extracts (20 μL) were injected onto a Zorbax SB-C18 reverse phase HPLC column (1.8 μm Rapid Resolution HT Cartridge, 4.6 × 30 mm (Agilent, Santa Clara, CA, USA) maintained at 75 °C, and the components were separated using an acetonitrile–water gradient system (Table 2). The sodium adducts of CRV431 (1326 m/z) and metabolites were analyzed by mass spectrometry (MS) using electrospray ionization (ESI) in positive ion mode. The ESI–MS was optimized with N2 gas temperature set at 350 °C and drying gas at […]. The fragmentor and capillary voltages were set at 260 and 4000 volts, respectively. The nebulizer pressure was set at 40 psig. For the initial analysis of the microsomal extracts, the ESI–MS was run in scan mode (1260–1460 m/z) to capture all ion signals present. Subsequently, the microsomal extracts were run in selected ion mode (SIM), with the ions identified in the scans.

[6] = CRV431 metabolite profile in monkey liver microsomes (ESI-LCMS)
Procedure: as §3, §4, §5, §6, §7

[7] = CRV431 metabolite profile in rat liver microsomes (ESI-LCMS); details: Sprague-Dawley, pH 7.4
Procedure: as §3, §4, §5, §6, §7

CYP2C9 [8] = molecular target: T5, CYP2C9 (Homo sapiens, UniProt P11712); assay: Metabolism by recombinant human CYP enzymes: CYP2C9; set-up: purchased Sekisui Xenotech, Kansas City, MO, USA; details: 50 pmol CYP/mL, 15 min
Procedure: as §2, §1

CYP2C19 = assay: Chemical inhibition of CRV431 loss in human liver microsomes: CYP2C19; details: pH 7.4, probe CRV431 (1 μM; loss of parent), metabolism-dependent inhibitor (also inhibits CYP3A4/5), 30 min pre-incubation
Procedure: (§8) This experiment was carried out manually to verify the role of individual CYP enzymes in the metabolism of CRV431. […] Incubations were conducted at 37 ± 1 °C in 0.2 mL incubation mixtures (final volume) containing potassium phosphate buffer (50 mM, pH 7.4), MgCl2 (3 mM) and EDTA (1 mM, pH 7.4), with an NADPH-generating system as cofactor. The NADPH-generating system consisted of NADP (1 mM, pH 7.4), glucose-6-phosphate (5 mM, pH 7.4), and glucose-6-phosphate dehydrogenase (1 Unit/mL). CRV431 was added to the incubation mixtures in DMSO (0.1% v/v). For incubations with direct-acting chemical inhibitors, reactions were initiated by the addition of cofactor, and stopped by the addition of an equal volume of acetonitrile stop reagent. For incubations with metabolism-dependent chemical inhibitors, 30 min pre-incubations of human liver microsomes and the inhibitor were initiated by the addition of the cofactor. CRV431 was then added to the mixture to be incubated for 15 min. Reactions were stopped by the addition of an equal volume of acetonitrile stop reagent. Samples were analyzed by LC-MS/MS to quantify the amount of unchanged CRV431. Control samples with no CYP inhibitor present were conducted in the presence of the solvent used to dissolve the CYP inhibitor (“solvent control”).
(§9) Samples were analyzed by LC-MS/MS on a SCIEX 4000 QTrap mass spectrometer (Sciex, Rewood City, CA, USA). […]

CYP2C9 [9] = molecular target: T5, CYP2C9; assay: Chemical inhibition of CRV431 loss in human liver microsomes: CYP2C9; set-up: tissue Sekisui Xenotech, Kansas City, MO, USA; host or cells: human liver microsomes; details: pH 7.4, probe CRV431 (1 μM; loss of parent), metabolism-dependent inhibitor, 30 min pre-incubation
Procedure: as §8, §9

T5 sequence (P11712 whole entry): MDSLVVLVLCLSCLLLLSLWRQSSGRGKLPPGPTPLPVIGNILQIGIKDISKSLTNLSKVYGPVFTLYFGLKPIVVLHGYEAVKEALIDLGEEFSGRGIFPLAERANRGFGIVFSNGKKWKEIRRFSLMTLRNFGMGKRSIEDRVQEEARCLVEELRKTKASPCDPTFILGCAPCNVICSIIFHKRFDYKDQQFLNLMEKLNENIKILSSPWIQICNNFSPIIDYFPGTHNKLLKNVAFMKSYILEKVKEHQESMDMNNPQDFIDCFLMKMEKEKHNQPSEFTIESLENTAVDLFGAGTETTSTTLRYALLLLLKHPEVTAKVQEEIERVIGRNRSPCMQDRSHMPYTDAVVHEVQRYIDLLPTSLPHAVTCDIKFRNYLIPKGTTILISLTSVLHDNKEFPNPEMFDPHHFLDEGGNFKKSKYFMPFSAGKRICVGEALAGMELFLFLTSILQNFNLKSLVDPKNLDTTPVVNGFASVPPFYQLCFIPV
T4 sequence (P08684 whole entry): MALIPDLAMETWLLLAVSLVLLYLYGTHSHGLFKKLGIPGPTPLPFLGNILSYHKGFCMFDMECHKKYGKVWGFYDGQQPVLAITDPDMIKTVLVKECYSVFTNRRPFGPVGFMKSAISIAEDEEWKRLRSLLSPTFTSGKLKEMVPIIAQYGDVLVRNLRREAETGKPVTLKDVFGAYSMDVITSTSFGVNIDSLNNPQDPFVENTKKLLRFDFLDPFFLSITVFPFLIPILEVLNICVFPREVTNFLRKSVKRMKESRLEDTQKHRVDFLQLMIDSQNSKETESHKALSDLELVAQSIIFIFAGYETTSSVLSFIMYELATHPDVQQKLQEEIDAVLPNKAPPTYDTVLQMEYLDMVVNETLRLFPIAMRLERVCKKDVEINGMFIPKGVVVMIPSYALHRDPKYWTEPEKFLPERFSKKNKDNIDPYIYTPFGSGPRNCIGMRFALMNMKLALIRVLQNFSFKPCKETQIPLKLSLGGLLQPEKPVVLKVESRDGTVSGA
T3 sequence (P10635 whole entry): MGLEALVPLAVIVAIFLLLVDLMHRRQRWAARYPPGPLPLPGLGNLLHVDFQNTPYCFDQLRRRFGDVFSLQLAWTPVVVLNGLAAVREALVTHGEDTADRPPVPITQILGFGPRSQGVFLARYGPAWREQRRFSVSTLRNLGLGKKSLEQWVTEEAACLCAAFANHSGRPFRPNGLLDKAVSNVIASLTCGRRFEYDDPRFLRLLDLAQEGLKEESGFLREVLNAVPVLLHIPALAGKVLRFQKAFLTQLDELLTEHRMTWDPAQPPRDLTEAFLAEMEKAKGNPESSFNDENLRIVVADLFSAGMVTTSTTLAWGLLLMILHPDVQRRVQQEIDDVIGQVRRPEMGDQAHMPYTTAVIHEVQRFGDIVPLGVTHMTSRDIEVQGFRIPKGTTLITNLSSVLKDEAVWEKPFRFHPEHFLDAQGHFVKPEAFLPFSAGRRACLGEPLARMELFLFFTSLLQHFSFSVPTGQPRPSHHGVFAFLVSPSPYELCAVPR
T2 sequence (P33261 whole entry): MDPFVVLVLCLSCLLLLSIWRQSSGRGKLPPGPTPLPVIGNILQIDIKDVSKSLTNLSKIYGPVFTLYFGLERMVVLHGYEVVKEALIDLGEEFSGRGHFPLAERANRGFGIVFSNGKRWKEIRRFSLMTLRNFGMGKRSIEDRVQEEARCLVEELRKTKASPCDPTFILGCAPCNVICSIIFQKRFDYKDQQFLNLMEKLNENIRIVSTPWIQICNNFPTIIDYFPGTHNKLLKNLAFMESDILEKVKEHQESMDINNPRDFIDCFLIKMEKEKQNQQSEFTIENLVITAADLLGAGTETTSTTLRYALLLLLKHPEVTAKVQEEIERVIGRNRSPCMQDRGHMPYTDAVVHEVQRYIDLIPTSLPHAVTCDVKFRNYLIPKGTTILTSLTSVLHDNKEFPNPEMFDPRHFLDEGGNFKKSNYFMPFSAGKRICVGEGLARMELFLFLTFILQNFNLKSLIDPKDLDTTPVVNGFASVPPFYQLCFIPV

CCC1NC(=O)C([C@H](O)[C@H](C)CCCCCCNC(C)=O)N(C)C(=O)C(C(C)C)N(C)C(=O)[C@H](CC(C)C)N(C)C(=O)[C@H](CC(C)C)N(C)C(=O)C(C)NC(=O)[C@H](C)NC(=O)C(CC(C)C)N(C)C(=O)[C@H](C(C)C)NC(=O)[C@H](CC(C)C)N(C)C(=O)C(C)N(C)C1=O (stereo in doubt) [CRV431]
Biotransformation of CRV431 ([1]; 1 and 10 μM, 1 mg protein/mL, after 60 min incubation, with NADPH-generating system): nearly complete | Biotransformation of CRV431 ([1]; absence of microsomal proteins and the NADPH-generating system, same time period): no biotransformation | Disappearance of CRV431 (recombinant human CYP1A2): 19% | Disappearance of CRV431 [2]: 17% | Disappearance of CRV431 (recombinant human CYP2D6): 32% | Disappearance of CRV431 (recombinant human CYP3A4; CRV431 1 μM): 64% | Loss of CRV431 (recombinant human CYP3A4; CRV431 10 μM): 41% | Loss of CRV431 [3]: 24% | Substrate loss [4]: less than 15% | % of Total Drug-Related Mass Versus Time (minutes) 0 min ([5]; 0 min, 1 ug/mL): 96.4% | % of Total Drug-Related Mass Versus Time (minutes) 10 min ([5]; 10 min, 1 ug/mL): 57.0% | % of Total Drug-Related Mass Versus Time (minutes) 20 min ([5]; 20 min, 1 ug/mL): 27.5% | % of Total Drug-Related Mass Versus Time (minutes) 40 min ([5]; 40 min, 1 ug/mL): 10.4% | % of Total Drug-Related Mass Versus Time (minutes) 80 min ([5]; 80 min, 1 ug/mL): 4.0% | Amount of CRV431 remaining ([5]; 10 min): 71.8% | Amount of CRV431 remaining ([5]; 80 min): 5.3% | Rate of CRV431 metabolism in monkey liver microsomes, greater than in human microsomes ([6]; monkey relative to human liver microsomes): at least five-fold | % of Total Drug-Related Mass Versus Time (minutes) 0 min ([6]; monkey, 0 min, 1 ug/mL, pH 7.4): 96.3% | % of Total Drug-Related Mass Versus Time (minutes) 2.5 min ([6]; monkey, 2.5 min, 1 ug/mL, pH 7.4): 59.4% | % of Total Drug-Related Mass Versus Time (minutes) 5 min ([6]; monkey, 5 min, 1 ug/mL, pH 7.4): 21.5% | % of Total Drug-Related Mass Versus Time (minutes) 10 min ([6]; monkey, 10 min, 1 ug/mL, pH 7.4): 12.3% | % of Total Drug-Related Mass Versus Time (minutes) 20 min ([6]; monkey, 20 min, 1 ug/mL, pH 7.4): 4.3% | % of Total Drug-Related Mass Versus Time (minutes) 40 min ([6]; monkey, 40 min, 1 ug/mL, pH 7.4): 6.6% | % of Total Drug-Related Mass Versus Time (minutes) 80 min ([6]; monkey, 80 min, 1 ug/mL, pH 7.4): 6.7% | Amount of CRV431 remaining ([6]; monkey, microsomes, 10 min, 1 μg/mL, pH 7.4): 13.2% | % of Total Drug-Related Mass Versus Time (minutes) 0 min ([7]; 0 min, 1 ug/mL): 96.2% | % of Total Drug-Related Mass Versus Time (minutes) 10 min ([7]; 10 min, 1 ug/mL): 95.4% | % of Total Drug-Related Mass Versus Time (minutes) 20 min ([7]; 20 min, 1 ug/mL): 94.6% | % of Total Drug-Related Mass Versus Time (minutes) 40 min ([7]; 40 min, 1 ug/mL): 93.6% | % of Total Drug-Related Mass Versus Time (minutes) 80 min ([7]; 80 min, 1 ug/mL): 92.3% | Amount of CRV431 remaining ([7]; microsomes, 80 min, 1 μg/mL): 92.3% | Disappearance of CRV431 (CYP2C9 [8]; CRV431 1 μM): 27% | Loss of CRV431 (CYP2C9 [8]; CRV431 10 μM): 27%

COc1ccc2nc([S@@+]([O-])Cc3ncc(C)c(OC)c3C)[nH]c2c1 [esomeprazole]
inhibition at 15 min (CYP2C19): 37%

O=C(O)COc1ccc(C(=O)c2cccs2)c(Cl)c1Cl [tienilic acid]
inhibition at 15 min (CYP2C9 [9]): 7%
